Measurements as given in patent US7300946B2, “N-(substituted arylmethyl)-4-(disubstituted methyl) piperidines and pyridines” (Bayer CropScience AG, priority 2002, dated 2007).

Tested on: tobacco budworm (Heliothis virescens [Fabricius])
Assay: surface-treated diet test against the tobacco budworm
Assay type: in vivo
Details: tobacco budworm second instar larvae, 0.25 millimoles of candidate insecticide on the surface of the diet, five-day exposure; for Percent Mortality: compared to total number of insects infested; for Percent Growth Inhibition: inhibition of insect weight relative to untreated controls
Summary of the method: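 Wheat germ artificial diet surface-treated with 40 µL of 50 mM DMSO stock diluted 1:7 in 1:1 water/acetone (0.25 millimolar on diet), or sub-multiples for rate tests. One second-instar larva per well, 25° C, 60% RH, 5 days; percent weight inhibition vs DMSO controls and percent mortality.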

## O=C(Nc1ccc(F)c(F)c1)OC(c1ccc(C(F)(F)F)cc1)C1CC[N+]([O-])(Cc2ccc(Oc3ncccn3)cc2)CC1 (stereo not shown) [Compound 764]
  Percent Mortality: 100%
  Percent Growth Inhibition: 100%

## O=C(Nc1cc(F)cc(F)c1)OC(c1ccc(C(F)(F)F)cc1)C1CC[N+]([O-])(Cc2ccc(Oc3ncccn3)cc2)CC1 (stereo not shown) [Compound 765]
  Percent Mortality: 100%
  Percent Growth Inhibition: 100%

## O=C(Nc1ccc(Cl)cc1)OC(c1ccc(C(F)(F)F)cc1)C1CC[N+]([O-])(Cc2ccc(Oc3ccc(Cl)nn3)cc2)CC1 (stereo not shown) [Compound 767]
  Percent Mortality: 100%
  Percent Growth Inhibition: 100%

## O=C(Nc1cc(F)cc(F)c1)OC(c1ccc(C(F)(F)F)cc1)C1CC[N+]([O-])(Cc2ccc(Oc3ccc(Cl)nn3)cc2)CC1 (stereo not shown) [Compound 768]
  Percent Mortality: 100%
  Percent Growth Inhibition: 100%

## C=CCOC(c1ccc(C(F)(F)F)cc1)C1CCN(Cc2ccc(Oc3ccccn3)cc2)CC1 (stereo not shown) [Compound 769]
  Percent Mortality: 0%
  Percent Growth Inhibition: 13%

## CC(C)OC(=O)OC(c1ccc(C(F)(F)F)cc1)C1CCN(Cc2ccc(Oc3ccccn3)cc2)CC1 (stereo not shown) [Compound 770]
  Percent Mortality: 0%
  Percent Growth Inhibition: 76%

## CNC(=O)OC(c1ccc(C(F)(F)F)cc1)C1CCN(Cc2ccc(Oc3ccccn3)cc2)CC1 (stereo not shown) [Compound 771]
  Percent Mortality: 17%
  Percent Growth Inhibition: 72%

## CNC(=S)OC(c1ccc(C(F)(F)F)cc1)C1CCN(Cc2ccc(Oc3ccccn3)cc2)CC1 (stereo not shown) [Compound 772]
  Percent Mortality: 0%
  Percent Growth Inhibition: 78%

## CCON=Cc1ccc(CN2CCC(C(OC(=O)N(C)C)c3ccc(C(F)(F)F)cc3)CC2)cc1 (stereo not shown) [Compound 773]
  Percent Mortality: 100%
  Percent Growth Inhibition: 100%

## CCNC(=O)OC(c1ccc(C(F)(F)F)cc1)C1CCN(Cc2ccc(Oc3ccccn3)cc2)CC1 (stereo not shown) [Compound 774]
  Percent Mortality: 0%
  Percent Growth Inhibition: 98%

## CCCNC(=O)OC(c1ccc(C(F)(F)F)cc1)C1CCN(Cc2ccc(Oc3ccccn3)cc2)CC1 (stereo not shown) [Compound 775]
  Percent Mortality: 33%
  Percent Growth Inhibition: 100%

## CC(C)NC(=O)OC(c1ccc(C(F)(F)F)cc1)C1CCN(Cc2ccc(Oc3ccccn3)cc2)CC1 (stereo not shown) [Compound 776]
  Percent Mortality: 100%
  Percent Growth Inhibition: 100%

## CC(C)NC(=S)OC(c1ccc(C(F)(F)F)cc1)C1CCN(Cc2ccc(Oc3ccccn3)cc2)CC1 (stereo not shown) [Compound 777]
  Percent Mortality: 67%
  Percent Growth Inhibition: 100%

## CC(C)N(C)C(=O)OC(c1ccc(C(F)(F)F)cc1)C1CCN(Cc2ccc(Oc3ccccn3)cc2)CC1 (stereo not shown) [Compound 778]
  Percent Mortality: 0%
  Percent Growth Inhibition: 100%

## CC(C)(C)NC(=O)OC(c1ccc(C(F)(F)F)cc1)C1CCN(Cc2ccc(Oc3ccccn3)cc2)CC1 (stereo not shown) [Compound 779]
  Percent Mortality: 100%
  Percent Growth Inhibition: 100%

## C=CCNC(=O)OC(c1ccc(C(F)(F)F)cc1)C1CCN(Cc2ccc(Oc3ccccn3)cc2)CC1 (stereo not shown) [Compound 780]
  Percent Mortality: 0%
  Percent Growth Inhibition: 98%

## O=C(NC1CCCC1)OC(c1ccc(C(F)(F)F)cc1)C1CCN(Cc2ccc(Oc3ccccn3)cc2)CC1 (stereo not shown) [Compound 781]
  Percent Mortality: 100%
  Percent Growth Inhibition: 100%

## O=C(NC1CCCCC1)OC(c1ccc(C(F)(F)F)cc1)C1CCN(Cc2ccc(Oc3ccccn3)cc2)CC1 (stereo not shown) [Compound 782]
  Percent Mortality: 100%
  Percent Growth Inhibition: 100%

## CCOC(=O)CNC(=O)OC(c1ccc(C(F)(F)F)cc1)C1CCN(Cc2ccc(Oc3ccccn3)cc2)CC1 (stereo not shown) [Compound 783]
  Percent Mortality: 0%
  Percent Growth Inhibition: 70%

## COC(=O)C(NC(=O)OC(c1ccc(C(F)(F)F)cc1)C1CCN(Cc2ccc(Oc3ccccn3)cc2)CC1)C(C)C (stereo not shown) [Compound 784]
  Percent Mortality: 100%
  Percent Growth Inhibition: 100%

## CC(C)NC(=O)OC(c1ccc(C(F)(F)F)cc1)C1CC[N+]([O-])(Cc2ccc(Oc3ccccn3)cc2)CC1 (stereo not shown) [Compound 785]
  Percent Mortality: 100%
  Percent Growth Inhibition: 100%

## O=C(Nc1cc(F)cc(F)c1)OC(C1=CCN(Cc2ccc(Oc3ncccn3)cc2)CC1)c1ccc(C(F)(F)F)cc1 (stereo not shown) [Compound 786, N-(3,5-difluorophenyl)({1-[(4-pyrimidin-2-yloxyphenyl)methyl](4-1,2,5,6-tetrahydropyridyl)}[4-(trifluoromethyl)phenyl]methoxy)carboxamide]
  Percent Mortality: 100%
  Percent Growth Inhibition: 100%

## O=C(Nc1cc(F)cc(F)c1)OC(C1=CC[N+]([O-])(Cc2ccc(Oc3ncccn3)cc2)CC1)c1ccc(C(F)(F)F)cc1 (stereo not shown) [Compound 787]
  Percent Mortality: 100%
  Percent Growth Inhibition: 100%

## CC(=O)Oc1ccc(CN2CCC(=C(c3ccc(C(F)(F)F)cc3)c3ccc(C(F)(F)F)cc3)CC2)cc1 [Compound 788]
  Percent Mortality: 33%
  Percent Growth Inhibition: 87%

## CNC(=O)Oc1ccc(CN2CCC(=C(c3ccc(Cl)cc3)c3ccc(Cl)cc3)CC2)cc1 [Compound 789]
  Percent Mortality: 100%
  Percent Growth Inhibition: 100%

## CNC(=O)Oc1ccc(CN2CCC(=C(c3ccc(C(F)(F)F)cc3)c3ccc(C(F)(F)F)cc3)CC2)cc1 [Compound 790]
  Percent Mortality: 100%
  Percent Growth Inhibition: 100%

## CNC(=O)Oc1ccc(CN2CCC(=C(c3ccc(OC(F)(F)F)cc3)c3ccc(OC(F)(F)F)cc3)CC2)cc1 [Compound 791]
  Percent Mortality: 100%
  Percent Growth Inhibition: 100%

## CC(C)NC(=O)Oc1ccc(CN2CCC(=C(c3ccc(C(F)(F)F)cc3)c3ccc(C(F)(F)F)cc3)CC2)cc1 [Compound 792]
  Percent Mortality: 100%
  Percent Growth Inhibition: 100%

## CC(C)OC(=O)Nc1ccc(CN2CCC(=C(c3ccccc3)c3ccccc3)CC2)cc1 [Compound 793]
  Percent Mortality: 0%
  Percent Growth Inhibition: 76%

## CC(C)OC(=O)Nc1ccc(CN2CCC(=C(c3ccc(F)cc3)c3ccc(F)cc3)CC2)cc1 [Compound 794]
  Percent Mortality: 83%
  Percent Growth Inhibition: 100%

## CC(C)OC(=O)Nc1ccc(CN2CCC(=C(c3ccc(Cl)c(Cl)c3)c3ccc(Cl)c(Cl)c3)CC2)cc1 [Compound 795]
  Percent Mortality: 50%
  Percent Growth Inhibition: 94%

## CC(C)OC(=O)Nc1ccc(CN2CCC(=C(c3ccc(Cl)c(F)c3)c3ccc(Cl)c(F)c3)CC2)cc1 [Compound 796]
  Percent Mortality: 100%
  Percent Growth Inhibition: 100%

## C=CCOC(=O)Nc1ccc(CN2CCC(=C(c3ccc(C(F)(F)F)cc3)c3ccc(C(F)(F)F)cc3)CC2)cc1 [Compound 797]
  Percent Mortality: 100%
  Percent Growth Inhibition: 100%

## CC=CCOC(=O)Nc1ccc(CN2CCC(=C(c3ccc(Cl)cc3)c3ccc(Cl)cc3)CC2)cc1 [Compound 798]
  Percent Mortality: 0%
  Percent Growth Inhibition: 59%

## CC=CCOC(=O)Nc1ccc(CN2CCC(=C(c3ccc(C(F)(F)F)cc3)c3ccc(C(F)(F)F)cc3)CC2)cc1 [Compound 799]
  Percent Mortality: 0%
  Percent Growth Inhibition: 83%

## C=C(C)COC(=O)Nc1ccc(CN2CCC(=C(c3ccc(Cl)cc3)c3ccc(Cl)cc3)CC2)cc1 [Compound 800]
  Percent Mortality: 0%
  Percent Growth Inhibition: 86%

## C#CCOC(=O)Nc1ccc(CN2CCC(=C(c3ccc(Cl)cc3)c3ccc(Cl)cc3)CC2)cc1 [Compound 801]
  Percent Mortality: 100%
  Percent Growth Inhibition: 100%

## C#CCOC(=O)Nc1ccc(CN2CCC(=C(c3ccc(C(F)(F)F)cc3)c3ccc(C(F)(F)F)cc3)CC2)cc1 [Compound 802]
  Percent Mortality: 100%
  Percent Growth Inhibition: 100%

## CS(=O)(=O)Oc1ccc(CN2CCC(=C(c3ccc(C(F)(F)F)cc3)c3ccc(C(F)(F)F)cc3)CC2)cc1 [Compound 803]
  Percent Mortality: 100%
  Percent Growth Inhibition: 100%

## CC(C)S(=O)(=O)Oc1ccc(CN2CCC(=C(c3ccc(C(F)(F)F)cc3)c3ccc(C(F)(F)F)cc3)CC2)cc1 [Compound 804]
  Percent Mortality: 100%
  Percent Growth Inhibition: 100%

## CS(=O)(=O)Nc1ccc(CN2CCC(=C(c3ccc(C(F)(F)F)cc3)c3ccc(C(F)(F)F)cc3)CC2)cc1 [Compound 805]
  Percent Mortality: 33%
  Percent Growth Inhibition: 100%

## Fc1ccccc1Oc1ccc(CN2CCC(=C(c3ccc(C(F)(F)F)cc3)c3ccc(C(F)(F)F)cc3)CC2)cc1 [Compound 806]
  Percent Mortality: 0%
  Percent Growth Inhibition: 100%

## FC(F)(F)c1ccc(C(=C2CCN(Cc3ccc(-c4ccccn4)cc3)CC2)c2ccc(C(F)(F)F)cc2)cc1 [Compound 807]
  Percent Mortality: 100%
  Percent Growth Inhibition: 100%

## c1ccc(C(=C2CCN(Cc3ccc(Oc4ccccn4)cc3)CC2)c2ccccc2)cc1 [Compound 808]
  Percent Mortality: 0%
  Percent Growth Inhibition: 64%

## Clc1ccc(C(=C2CCN(Cc3ccc(Oc4ccccn4)cc3)CC2)c2ccc(Cl)cc2)cc1 [Compound 809]
  Percent Mortality: 100%
  Percent Growth Inhibition: 100%

## Fc1ccc(C(=C2CCN(Cc3ccc(Oc4ccccn4)cc3)CC2)c2ccc(F)cc2)cc1 [Compound 810]
  Percent Mortality: 100%
  Percent Growth Inhibition: 100%

## FC(F)(F)c1ccc(C(=C2CCN(Cc3ccc(Nc4ccccn4)cc3)CC2)c2ccc(C(F)(F)F)cc2)cc1 [Compound 811]
  Percent Mortality: 100%
  Percent Growth Inhibition: 100%

## Clc1ccc(C(=C2CCN(Cc3ccc(Oc4ncccn4)cc3)CC2)c2ccc(Cl)cc2)cc1 [Compound 812]
  Percent Mortality: 100%
  Percent Growth Inhibition: 100%

## Clc1ccc(C(=C2CCN(Cc3ccc(Oc4ncccn4)cc3)CC2)c2ccc(Cl)c(Cl)c2)cc1Cl [Compound 813]
  Percent Mortality: 100%
  Percent Growth Inhibition: 100%

## FC(F)(F)c1ccc(C(=C2CCN(Cc3ccc(Oc4ncccn4)cc3)CC2)c2ccccc2Cl)cc1 [Compound 814]
  Percent Mortality: 100%
  Percent Growth Inhibition: 100%
